Measured values as given in patent US9394544B2, “Ameliorating oxidative stress in neurodegenerative disease via Nox1 targeting” (University of Central Florida Research Foundation, Inc., priority 2013, dated 2016).

Tested on: N27 cells
Assay: 8-oxo-dG immunostaining (oxidative DNA damage) in N27 cells
Type: cell-based, rat
Description: To substantiate that nuclear Nox1/Rac1 complex produces superoxide, it was investigated whether selective inhibition of the Nox1/Rac1 complex attenuates ROS production. Adeno-associated virus serotype 2 (AAV2) expression cassettes with either Nox1 shRNA or a T17N dominant negative Rac1 variant were used to knockdown Nox1 or inhibit Rac1, respectively. These vectors separately expressed Green Fluorescent Protein (GFP) as a marker for transduction efficiency. […] The increased levels of active Nox1/Rac1 complex (FIG. 4B) in the nucleus, and increased ROS (FIGS. 5A and 5B) of DA cells in the presence of 6-OHDA, led one to investigate whether oxidative DNA damage occurs in the nucleus. […] As early as 3 days after striatal injection of 6-OHDA, 8-oxo-dG staining was increased in the SN (FIG. 5E). […]
For fluorescent immunostaining, N27 cells in the 4-well chamber slide were incubated for 1 h at 37° C. in 2% normal donkey serum containing either a rabbit polyclonal antibody against Nox1 (1:500), or p-c-jun (1:500). […] Specific binding was detected by incubation for 60 min at room temperature with a 1:200 dilution of secondary antibodies conjugated to AlexaFluor 546 dyes. […] Mounted slices were evaluated for fluorescence under settings for 546 and 488 nm emissions on a confocal microscope.

For NCCc1cc(O)c(O)cc1O [6-OHDA, 6-hydroxydopamine], the “DNA oxidative damage (8-oxo-dG immunoreactivity in the nucleus) caused by toxin” value was “increased DNA oxidative damage”.
